Measurements taken from patent publication US12729377B2, “RNAi agents and compositions for inhibiting expression of angiopoietin-like 3 (ANGPTL3), and methods of use” (Arrowhead Pharmaceuticals, Inc., priority 2017, dated 2026).
In the oligonucleotide strings, read from the 5' end, every base follows the letter of its sugar. An asterisk marks phosphorothioate; unmarked linkages are phosphodiester. Other units and linkages are bracketed, terminal groups are in braces. A string of capitals states the bases alone. {NAG37} = tridentate N-acetyl-galactosamine targeting ligand, structure (NAG37)s; [invAb] = inverted abasic unit; m = 2'-O-methyl; f = 2'-fluoro

Experiments:
ANGPTL3 gene [1] = experiment: Example 11: dose response, serum total cholesterol in mice; assay type: in vivo, C57bl/6 mice
Method: To assess the dose response of ANGPTL3 RNAi agent AD05488, six- to eight-week-old female C57bl/6 mice were used. Pre-dose serum samples were taken at day −1 after a four hour fast. At day 1, each mouse was given a single subcutaneous administration of 200 μl containing the respective mg/kg dose of an ANGPTL3 RNAi agent in D5W (dextrose in 5% water), or control (D5W) with no RNAi agent, according to the dosing groups recited in Table 53:
The RNAi agent tested (AD05488) included a modified sequence and an N-acetyl-galactosamine-containing targeting ligand conjugated to the 5′ terminal end of the sense strand. (See Tables 3, 4, and 5 for modified sequences and targeting ligand structures). The injections were performed between the skin and muscle (i.e. subcutaneous injections) into the loose skin over the neck and shoulder area. Four (4) mice in each group were tested (n=4). Serum was collected on days 8, 15, 22, and 29. Mice were fasted for four hours prior to each collection. ANGPTL3 protein levels in serum were measured by ELISA assay (R&D Systems), according to the manufacturer's recommendations. Triglycerides, total cholesterol, high-density lipoprotein (HDL), and low-density lipoprotein (LDL) in serum were measured on a Cobas® Integra 400 (Roche Diagnostics), according to the manufacturer's recommendations.
The ANGPTL3 protein levels, triglyceride levels, total cholesterol levels, HDL levels, and LDL levels for each animal were normalized. For normalization, the level of ANGPTL3 protein, triglyceride, HDL, and total cholesterol, respectively, for each animal at a time point, was divided by the pre-treatment level of expression in that animal (in this case at day −1) to determine the ratio of expression “normalized to pre-treatment.” Expression at a specific time point was then normalized to the D5W control group by dividing the “normalized to pre-treatment” ratio for an individual animal by the mean “normalized to pretreatment” ratio of all mice in the D5W control group.

ANGPTL3 gene [2] = experiment: Example 14: RNAi agent and statin, serum total cholesterol in LDLR knockout mice; assay type: in vivo, LDLR KO mice
Description: To evaluate the effect of co-administration of RNAi agents and statins in a disease model, LDLR KO mice were commercially obtained (The Jackson Laboratory). For three weeks prior to the onset of the study, forty-one (41) male 7 to 8 week old LDLR KO mice were placed on a high fat (“western”) diet (Teklad Custom Diets TD.88137), and remained on that diet throughout the duration of the study. Pre-dose serum samples were taken on study Day 1 after a four hour fast. The dosing regimen for the study is recited in the following Table 72:
• Mice were treated at 40 mg/kg for the first 11 days, then switched to 20 mg/kg thereafter.
The vehicle used for the oral gavage in the study was a 1:1 mixture of Ora-Plus®: Ora-Sweet® solution, which were acquired commercially. For the preparation of the atorvastatin oral gavage administrations, the respective desired dose of atorvastatin was first dissolved in sterile water (0.3 mL water per 1 mL of desired formulation) and vortexed until smooth, followed by the addition of a mixture of 1:1 Ora-Plus®: Ora-Sweet® solution (0.7 mL vehicle per 1 mL of desired formulation) and vortexed. On day 1 and for each day thereafter an oral gavage dose was administered for each of the Groups except for Group 2. On Day 23, Groups 1, 2, 3, and 4 received a single subcutaneous administration of 2.5 mg/kg dose ([…] solution) of an ANGPTL3 RNAi agent in D5W (dextrose in 5% water), or vehicle control (D5W) with no RNAi agent.
The RNAi agent tested (AD05488) included a modified sequence and an N-acetyl-galactosamine-containing targeting ligand conjugated to the 5′ terminal end of the sense strand. (See Tables 3, 4, and 5 for modified sequences and targeting ligand structures). The injections were performed between the skin and muscle (i.e. subcutaneous injections) into the loose skin over the neck and shoulder area. Serum was collected on days 8, 15, 22 (pre-RNAi agent injection), 29, 36, 43, and 50. LDLR KO mice were fasted for four hours prior to each collection.
ANGPTL3 protein levels in serum were measured by ELISA assay (R&D Systems), according to the manufacturer's recommendations. Among other biomarkers, triglycerides, total cholesterol, and low-density lipoprotein (LDL) in serum were measured on a Cobas® Integra 400 (Roche Diagnostics), according to the manufacturer's recommendations.
The ANGPTL3 protein levels, triglyceride levels, total cholesterol levels, HDL levels, and LDL levels for each animal were normalized. For normalization, respective levels of ANGPTL3 protein, TG, total cholesterol, or LDL for each animal at a time point was divided by the pre-treatment level of expression in that animal (in this case pre-dose levels on Day 1) to determine the ratio of expression “normalized to pre-treatment.” Data from the study set forth in this Example are shown in the following Tables 73-76: […]

## AD05488: RNAi agent duplex: antisense AM07235-AS, sense AM07234-SS (antisense mU*fA*mC*fUmGfAmUfCmAfAmAfUmAfUmGfUmUfGmAfG*mC; sense {NAG37}*[invAb]*mGmCmUmCmAmAmCmAfUfAfUmUmUmGmAmUmCmAmGmUmA*[invAb])
ANGPTL3 gene [1]; 0.05 mg/kg single sc day 1, Day 8
  Avg Total Chol Normalized to Pre-Treatment and Control: 0.856
ANGPTL3 gene [1]; 0.05 mg/kg single sc day 1, Day 15
  Avg Total Chol Normalized to Pre-Treatment and Control: 1.090
ANGPTL3 gene [1]; 0.05 mg/kg single sc day 1, Day 22
  Avg Total Chol Normalized to Pre-Treatment and Control: 0.946
ANGPTL3 gene [1]; 0.05 mg/kg single sc day 1, Day 29
  Avg Total Chol Normalized to Pre-Treatment and Control: 0.915
ANGPTL3 gene [1]; 0.1 mg/kg single sc day 1, Day 8
  Avg Total Chol Normalized to Pre-Treatment and Control: 0.820
ANGPTL3 gene [1]; 0.1 mg/kg single sc day 1, Day 15
  Avg Total Chol Normalized to Pre-Treatment and Control: 0.974
ANGPTL3 gene [1]; 0.1 mg/kg single sc day 1, Day 22
  Avg Total Chol Normalized to Pre-Treatment and Control: 0.785
ANGPTL3 gene [1]; 0.1 mg/kg single sc day 1, Day 29
  Avg Total Chol Normalized to Pre-Treatment and Control: 0.945
ANGPTL3 gene [1]; 0.5 mg/kg single sc day 1, Day 8
  Avg Total Chol Normalized to Pre-Treatment and Control: 0.740
ANGPTL3 gene [1]; 0.5 mg/kg single sc day 1, Day 15
  Avg Total Chol Normalized to Pre-Treatment and Control: 0.918
ANGPTL3 gene [1]; 0.5 mg/kg single sc day 1, Day 22
  Avg Total Chol Normalized to Pre-Treatment and Control: 0.897
ANGPTL3 gene [1]; 0.5 mg/kg single sc day 1, Day 29
  Avg Total Chol Normalized to Pre-Treatment and Control: 0.883
ANGPTL3 gene [1]; 1.0 mg/kg single sc day 1, Day 8
  Avg Total Chol Normalized to Pre-Treatment and Control: 0.610
ANGPTL3 gene [1]; 1.0 mg/kg single sc day 1, Day 15
  Avg Total Chol Normalized to Pre-Treatment and Control: 0.816
ANGPTL3 gene [1]; 1.0 mg/kg single sc day 1, Day 22
  Avg Total Chol Normalized to Pre-Treatment and Control: 0.857
ANGPTL3 gene [1]; 1.0 mg/kg single sc day 1, Day 29
  Avg Total Chol Normalized to Pre-Treatment and Control: 0.920
ANGPTL3 gene [1]; 2.5 mg/kg single sc day 1, Day 8
  Avg Total Chol Normalized to Pre-Treatment and Control: 0.647
ANGPTL3 gene [1]; 2.5 mg/kg single sc day 1, Day 15
  Avg Total Chol Normalized to Pre-Treatment and Control: 0.832
ANGPTL3 gene [1]; 2.5 mg/kg single sc day 1, Day 22
  Avg Total Chol Normalized to Pre-Treatment and Control: 0.772
ANGPTL3 gene [1]; 2.5 mg/kg single sc day 1, Day 29
  Avg Total Chol Normalized to Pre-Treatment and Control: 0.694
ANGPTL3 gene [1]; 5.0 mg/kg single sc day 1, Day 8
  Avg Total Chol Normalized to Pre-Treatment and Control: 0.583
ANGPTL3 gene [1]; 5.0 mg/kg single sc day 1, Day 15
  Avg Total Chol Normalized to Pre-Treatment and Control: 0.787
ANGPTL3 gene [1]; 5.0 mg/kg single sc day 1, Day 22
  Avg Total Chol Normalized to Pre-Treatment and Control: 0.790
ANGPTL3 gene [1]; 5.0 mg/kg single sc day 1, Day 29
  Avg Total Chol Normalized to Pre-Treatment and Control: 0.783
ANGPTL3 gene [2]; Group 2: no gavage, 2.5 mg/kg AD05488 SC on day 23, Day 8 (pre-RNAi agent injection)
  Avg Total Chol normalized to pre-treatment: 0.962
ANGPTL3 gene [2]; Group 2: no gavage, 2.5 mg/kg AD05488 SC on day 23, Day 15 (pre-RNAi agent injection)
  Avg Total Chol normalized to pre-treatment: 1.122
ANGPTL3 gene [2]; Group 2: no gavage, 2.5 mg/kg AD05488 SC on day 23, Day 22 (pre-RNAi agent injection)
  Avg Total Chol normalized to pre-treatment: 1.261
ANGPTL3 gene [2]; Group 2: no gavage, 2.5 mg/kg AD05488 SC on day 23, Day 29
  Avg Total Chol normalized to pre-treatment: 0.645
ANGPTL3 gene [2]; Group 2: no gavage, 2.5 mg/kg AD05488 SC on day 23, Day 36
  Avg Total Chol normalized to pre-treatment: 0.518
ANGPTL3 gene [2]; Group 2: no gavage, 2.5 mg/kg AD05488 SC on day 23, Day 43
  Avg Total Chol normalized to pre-treatment: 0.512
ANGPTL3 gene [2]; Group 2: no gavage, 2.5 mg/kg AD05488 SC on day 23, Day 50
  Avg Total Chol normalized to pre-treatment: 0.515
ANGPTL3 gene [2]; Group 3: 10 mg/kg daily oral gavage atorvastatin, 2.5 mg/kg AD05488 on day 23, Day 8 (pre-RNAi agent injection)
  Avg Total Chol normalized to pre-treatment: 0.763
ANGPTL3 gene [2]; Group 3: 10 mg/kg daily oral gavage atorvastatin, 2.5 mg/kg AD05488 on day 23, Day 15 (pre-RNAi agent injection)
  Avg Total Chol normalized to pre-treatment: 0.620
ANGPTL3 gene [2]; Group 3: 10 mg/kg daily oral gavage atorvastatin, 2.5 mg/kg AD05488 on day 23, Day 22 (pre-RNAi agent injection)
  Avg Total Chol normalized to pre-treatment: 0.758
ANGPTL3 gene [2]; Group 3: 10 mg/kg daily oral gavage atorvastatin, 2.5 mg/kg AD05488 on day 23, Day 29
  Avg Total Chol normalized to pre-treatment: 0.444
ANGPTL3 gene [2]; Group 3: 10 mg/kg daily oral gavage atorvastatin, 2.5 mg/kg AD05488 on day 23, Day 36
  Avg Total Chol normalized to pre-treatment: 0.362
ANGPTL3 gene [2]; Group 3: 10 mg/kg daily oral gavage atorvastatin, 2.5 mg/kg AD05488 on day 23, Day 43
  Avg Total Chol normalized to pre-treatment: 0.331
ANGPTL3 gene [2]; Group 3: 10 mg/kg daily oral gavage atorvastatin, 2.5 mg/kg AD05488 on day 23, Day 50
  Avg Total Chol normalized to pre-treatment: 0.322
ANGPTL3 gene [2]; Group 4: 20 mg/kg* daily oral gavage atorvastatin (40 mg/kg first 11 days), 2.5 mg/kg AD05488 on day 23, Day 8 (pre-RNAi agent injection)
  Avg Total Chol normalized to pre-treatment: 0.682
ANGPTL3 gene [2]; Group 4: 20 mg/kg* daily oral gavage atorvastatin (40 mg/kg first 11 days), 2.5 mg/kg AD05488 on day 23, Day 15 (pre-RNAi agent injection)
  Avg Total Chol normalized to pre-treatment: 0.622
ANGPTL3 gene [2]; Group 4: 20 mg/kg* daily oral gavage atorvastatin (40 mg/kg first 11 days), 2.5 mg/kg AD05488 on day 23, Day 22 (pre-RNAi agent injection)
  Avg Total Chol normalized to pre-treatment: 0.857
ANGPTL3 gene [2]; Group 4: 20 mg/kg* daily oral gavage atorvastatin (40 mg/kg first 11 days), 2.5 mg/kg AD05488 on day 23, Day 29
  Avg Total Chol normalized to pre-treatment: 0.448
ANGPTL3 gene [2]; Group 4: 20 mg/kg* daily oral gavage atorvastatin (40 mg/kg first 11 days), 2.5 mg/kg AD05488 on day 23, Day 36
  Avg Total Chol normalized to pre-treatment: 0.295
ANGPTL3 gene [2]; Group 4: 20 mg/kg* daily oral gavage atorvastatin (40 mg/kg first 11 days), 2.5 mg/kg AD05488 on day 23, Day 43
  Avg Total Chol normalized to pre-treatment: 0.293
ANGPTL3 gene [2]; Group 4: 20 mg/kg* daily oral gavage atorvastatin (40 mg/kg first 11 days), 2.5 mg/kg AD05488 on day 23, Day 50
  Avg Total Chol normalized to pre-treatment: 0.310
ANGPTL3 gene [2]; co-administration of atorvastatin and RNAi agent (Groups 3 and 4), LDLR KO mice on high fat diet
  total reductions in total cholesterol: ~ 70%
